The values below come from patent US12194051B2, “5-azaindazole derivatives as adenosine receptor antagonists” (MERCK PATENT GMBH, priority 2018, dated 2025).

For one experiment, the target named is T1, human A2B receptors (Homo sapiens, UniProt P29275).
T1 construct: expressed in transfected cells; host or cells: HEK293
T1 sequence (P29275 1-332): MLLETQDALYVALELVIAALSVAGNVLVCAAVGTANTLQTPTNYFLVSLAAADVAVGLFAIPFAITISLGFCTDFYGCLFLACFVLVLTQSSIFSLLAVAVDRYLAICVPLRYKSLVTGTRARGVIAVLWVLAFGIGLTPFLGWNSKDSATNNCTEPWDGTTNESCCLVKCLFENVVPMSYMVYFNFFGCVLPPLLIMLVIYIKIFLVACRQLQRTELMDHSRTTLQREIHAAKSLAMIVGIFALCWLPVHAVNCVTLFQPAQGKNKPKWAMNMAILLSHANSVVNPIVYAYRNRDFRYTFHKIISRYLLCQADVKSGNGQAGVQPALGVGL
The experiment is described as follows: Inhibition of human A2B receptor in recombinant HEK293 cells, cAMP quantification (HTRF). Particulars: read-out: A2B (Category). It counts as cell-based. How it is done: (§1) The functional activities of human A2A and A2B receptors were determined by quantification of cAMP, being the second messenger for adenosine receptors.
(§2) After a 15 min incubation, HTRF reagents (cAMP dynamic 2, Cis Bio) were added and the cellular cAMP levels were determined using the ENVISION (Perkin Elmer) plate reader.
(TR-FRET usually uses a lanthanide donor and a delayed reading to cut background.)

A further experiment addresses T2, human A2A receptors (Homo sapiens, UniProt P29274).
T2 construct: expressed in transfected cells; host or cells: HEK293
The experiment is described as follows: Inhibition of human A2A receptor in recombinant HEK293 cells, cAMP quantification (HTRF). It counts as cell-based. Particulars: read-out: A2A (Category). How it is done: as §1, §2

T2 sequence (P29274 whole entry): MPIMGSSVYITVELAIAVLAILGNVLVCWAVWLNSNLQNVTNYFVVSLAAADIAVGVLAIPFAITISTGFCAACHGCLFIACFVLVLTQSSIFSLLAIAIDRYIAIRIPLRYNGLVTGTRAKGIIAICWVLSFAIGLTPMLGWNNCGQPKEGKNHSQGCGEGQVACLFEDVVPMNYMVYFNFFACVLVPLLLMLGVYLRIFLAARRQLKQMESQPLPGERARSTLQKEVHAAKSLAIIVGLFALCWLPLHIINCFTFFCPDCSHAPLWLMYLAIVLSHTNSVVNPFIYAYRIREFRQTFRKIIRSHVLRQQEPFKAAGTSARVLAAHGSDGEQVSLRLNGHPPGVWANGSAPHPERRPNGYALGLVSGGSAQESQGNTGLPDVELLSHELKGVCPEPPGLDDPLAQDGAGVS

As for `[2H]C1([2H])COCCN(C(=O)c2cc3c(cn2)c(Nc2cnccn2)nn3CC(F)(F)F)C1` [Compound 121], the values for the IC50 on human A2B receptors and on human A2A receptors were under 1000 nM and under 100 nM, respectively.

As for `O=C(c1cc2c(cn1)c(Nc1ccc(F)cn1)nn2CC(F)(F)F)N1CCC[C@@H](O)C1` [Compound 97, [(3R)-3-hydroxy-piperidin-1-yl]-[3-(5-Fluoro-pyridin-2-ylamino)-1-(2,2,2-trifluoro-ethyl)-1H-pyrazolo[4,3-c]pyridin-6-yl]-methanone], the IC50 at human A2B receptors is under 1000 nM; at human A2A receptors, under 100 nM.

On to `O=C(c1cc2c(cn1)c(Nc1ccc(F)cn1)nn2CC(F)(F)F)N1CCC[C@H](CO)C1` [Compound 102, [3-[(5-fluoro-2-pyridyl)amino]-1-(2,2,2-trifluoroethyl)pyrazolo[4,3-c]pyridin-6-yl]-[(3S)-3-(hydroxymethyl)-1-piperidyl]methanone], for which the IC50 at human A2B receptors and at human A2A receptors was under 100 nM each time.

Regarding `O=C(c1cc2c(cn1)c(Nc1cc(Cl)c(F)cn1)nn2CC(F)(F)F)N1CCCOCC1` [Compound 66, [3-[(4-chloro-5-fluoro-2-pyridyl)amino]-1-(2,2,2-trifluoroethyl)pyrazolo[4,3-c]pyridin-6-yl]-(1,4-oxazepan-4-yl)methanone], the values for the IC50 on human A2B receptors and at human A2A receptors were under 1000 nM and under 100 nM, respectively.

As for `N#Cc1ccc(Nc2nn(CC(F)(F)F)c3cc(C(=O)N4CCCOCC4)ncc23)cc1` [Compound 13, 4-[[6-(1,4-oxazepane-4-carbonyl)-1-(2,2,2-trifluoroethyl)pyrazolo[4,3-c]pyridin-3-yl]amino]benzonitrile], the IC50 at human A2B receptors is under 1000 nM; on human A2A receptors it was under 100 nM.

Take `O=C(c1cc2c(cn1)c(Nc1ccncn1)nn2CC(F)(F)F)N1CCC(O)CC1` [Compound 76, (4-Hydroxy-piperidin-1-yl)-[3-(pyrimidin-4-ylamino)-1-(2,2,2-trifluoro-ethyl)-1H-pyrazolo[4,3-c]pyridin-6-yl]-methanone]: the IC50 on human A2B receptors is under 1000 nM; on human A2A receptors it was under 100 nM.

Regarding `O=C(c1cc2c(cn1)c(Nc1ccccc1)nn2CC(F)(F)F)N1CCCOCC1` [Compound 2, [3-anilino-1-(2,2,2-trifluoroethyl)pyrazolo[4,3-c]pyridin-6-yl]-(1,4-oxazepan-4-yl)methanone], the IC50 is under 1000 nM on human A2B receptors and under 100 nM on human A2A receptors.

With `O=C(c1cc2c(cn1)c(Nc1ccc(F)cc1)nn2CC(F)(F)F)N1CCOCC(O)C1` (stereo not shown) [Compound 33, [3-(4-fluoroanilino)-1-(2,2,2-trifluoroethyl)pyrazolo[4,3-c]pyridin-6-yl]-(6-hydroxy-1,4-oxazepan-4-yl)methanone], the IC50 is under 1000 nM on human A2B receptors and under 100 nM on human A2A receptors.

For the molecule `O=C(c1cc2c(cn1)c(Nc1ccc(F)c(Cl)n1)nn2CC(F)(F)F)N1CCCOCC1` [Compound 65, [3-[(6-chloro-5-fluoro-2-pyridyl)amino]-1-(2,2,2-trifluoroethyl)pyrazolo[4,3-c]pyridin-6-yl]-(1,4-oxazepan-4-yl)methanone], the IC50 was under 1000 nM at human A2B receptors and under 100 nM at human A2A receptors.

As for `O=C(c1cc2c(cn1)c(Nc1cccc(F)c1)nn2CC(F)(F)F)N1[C@@H]2CC[C@H]1C[C@@H](O)C2` [Compound 25, [3-(3-fluoroanilino)-1-(2,2,2-trifluoroethyl)pyrazolo[4,3-c]pyridin-6-yl]-(3-endo-hydroxy-8-azabicyclo[3.2.1]octan-8-yl)methanone], the IC50 at human A2B receptors and at human A2A receptors was under 100 nM each time.

For `O=C(c1cc2c(cn1)c(Nc1cc(F)ccn1)nn2CC(F)(F)F)N1CCC[C@H](O)C1` [Compound 117, [(3S)-3-hydroxy-piperidin-1-yl]-[3-(4-fluoro-pyridin-2-ylamino)-1-(2,2,2-trifluoro-ethyl)-1H-pyrazolo[4,3-c]pyridin-6-yl]methanone], the IC50 on human A2B receptors and on human A2A receptors was under 100 nM in each case.
